Source: patent publication US20240197805A1, “COMPOSITE FOR RELIEVING […], PREPARATION METHOD THEREFOR, USE THEREOF, DRUG, FOOD AND HEALTH-CARE PRODUCT” (INFINITUS ( CHINA ) COMPANY LTD., priority 2022, published 2024)

Experiments:
Type in all cases: in vivo
[1] = test system: ICR mice; assay: Pentobarbital sodium subthreshold dose hypnosis test; conditions: mice gavaged 14 days (250 mg/kg samples; GABA 100 mg/kg); pentobarbital sodium 30 mg/kg BW i.p.; animals asleep within 30 min; *p<0.05, **p<0.01 vs blank group
Source text: (§1) • 1. Principle: a pentobarbital sodium subthreshold dose hypnosis test, a sleep latency test and a sleep extension time change test are common test methods for a sleep improvement performance of a health-care food. The method takes a disappearance of a righting reflex as an observation index and is specifically represented as follows: when a mouse is placed on the back to lie, if the mouse cannot turn over for more than 60 s, the righting reflex is considered to disappear, and the mouse falls sleep; if a body position can be righted immediately (within 5 s), the righting reflex is considered to be recovered and the mouse is in a waking state; and a time from the disappearance of the righting reflex to the recovery is an animal sleeping time. • 2. Materials: ICR mice come from the Experimental Animal Center of Zhejiang Academy of Medical Sciences and have the production license number of SCXK (Zhe). The mice are all male, weigh 18 to 22 g and are divided into 10 mice/group. The mice are adapted to the environment in an SPF animal room for 5 to 7 days, wherein environment conditions of the SPF animal room are as follows: a temperature of 20 to 26° C., a humidity of 40% to 70%, and light and shade alternation time of 12 h/12 h. • 3. […]

[2] = test system: ICR mice; assay: Sleep latency experiment (pentobarbital sodium); conditions: mice gavaged 14 days (250 mg/kg samples; GABA 100 mg/kg); pentobarbital sodium 200 mg/kg BW i.p.; *p<0.05 vs blank group
Source text: as §1

[3] = test system: ICR mice; assay: Sleep extension time change experiment (pentobarbital sodium); conditions: mice gavaged 14 days (250 mg/kg samples; GABA 100 mg/kg); pentobarbital sodium 30 mg/kg BW i.p.; *p<0.05, **p<0.01 vs blank group
Source text: as §1

NCCCC(=O)O [Positive control, y-aminobutyric acid]
Sleeping rate [1]: 90.00** % | Sleep latency x ± s [2]: 5.60 ± 1.48* min | Sleeping time x ± s [3]: 92.36 ± 16.67** min
